Measured values taken from paper PMC11726654, “Discovery of MDI-114215: A Potent and Selective LIMK Inhibitor To Treat Fragile X Syndrome” (Journal of Medicinal Chemistry, 2024).

Experiments:
[1] = molecular target: LIMK2 (Homo sapiens, UniProt P53671); assay: RapidFire mass spectrometry kinase assay (cofilin phosphorylation); assay type: biochemical; conditions: non-phosphorylated LIMK2; mean ± SEM; read-out: Enzymatic (RapidFire) pIC50 LIMK2 (converted)
[2] = molecular target: LIMK1 (Homo sapiens, UniProt P53667); assay: as above; assay type: biochemical; conditions: non-phosphorylated LIMK1; mean ± SEM; read-out: Enzymatic (RapidFire) pIC50 LIMK1 (converted)
[3] = Microsomal stability; conditions: for Microsomal CLint Rat: rat microsomes, 2 μM compound
[4] = Microsomal stability; conditions: for microsomal CLint at 2 μM / microsomal CLint at 0.5 h, 2 µM: human, microsomes, pH 7.4; for Microsomal CLint Human: human microsomes, 2 μM compound

Chain of LIMK1 (P53667 whole entry): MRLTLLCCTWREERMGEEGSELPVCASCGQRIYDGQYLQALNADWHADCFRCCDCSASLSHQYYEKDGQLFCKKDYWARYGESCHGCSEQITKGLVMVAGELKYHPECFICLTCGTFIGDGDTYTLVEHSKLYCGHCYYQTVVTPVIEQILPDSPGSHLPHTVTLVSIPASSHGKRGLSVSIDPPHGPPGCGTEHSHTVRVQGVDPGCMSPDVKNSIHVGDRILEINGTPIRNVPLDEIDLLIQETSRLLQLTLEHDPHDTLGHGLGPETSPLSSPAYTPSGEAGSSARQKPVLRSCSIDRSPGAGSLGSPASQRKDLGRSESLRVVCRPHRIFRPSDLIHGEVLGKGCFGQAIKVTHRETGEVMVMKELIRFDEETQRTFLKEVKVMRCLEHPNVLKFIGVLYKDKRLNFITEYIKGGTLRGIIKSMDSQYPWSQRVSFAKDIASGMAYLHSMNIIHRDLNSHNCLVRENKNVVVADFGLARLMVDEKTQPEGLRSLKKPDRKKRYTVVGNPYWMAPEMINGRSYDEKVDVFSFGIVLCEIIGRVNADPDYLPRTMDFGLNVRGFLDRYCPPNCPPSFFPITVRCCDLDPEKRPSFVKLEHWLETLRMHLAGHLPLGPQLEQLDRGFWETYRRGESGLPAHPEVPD
Chain of LIMK2 (P53671 whole entry): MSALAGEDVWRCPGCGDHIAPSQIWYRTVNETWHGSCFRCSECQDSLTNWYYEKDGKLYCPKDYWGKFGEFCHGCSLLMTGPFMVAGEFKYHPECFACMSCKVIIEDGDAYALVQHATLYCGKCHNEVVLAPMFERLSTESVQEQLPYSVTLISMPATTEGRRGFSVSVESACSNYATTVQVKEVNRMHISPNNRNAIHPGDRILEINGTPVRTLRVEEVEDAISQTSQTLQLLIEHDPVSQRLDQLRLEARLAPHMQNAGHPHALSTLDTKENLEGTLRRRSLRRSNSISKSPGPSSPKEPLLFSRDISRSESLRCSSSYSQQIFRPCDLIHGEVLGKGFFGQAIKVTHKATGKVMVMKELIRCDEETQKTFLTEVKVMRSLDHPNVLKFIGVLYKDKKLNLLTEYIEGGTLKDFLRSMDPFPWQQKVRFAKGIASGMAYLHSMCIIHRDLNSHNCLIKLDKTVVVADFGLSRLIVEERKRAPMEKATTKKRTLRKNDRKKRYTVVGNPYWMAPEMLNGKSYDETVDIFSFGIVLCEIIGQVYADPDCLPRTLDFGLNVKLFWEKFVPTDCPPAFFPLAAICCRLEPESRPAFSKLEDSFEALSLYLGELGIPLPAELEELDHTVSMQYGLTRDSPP

Row | SMILES | IC50 [1] [nM] | IC50 [2] [nM] | microsomal CLint at 2 μM ([3]; rat, microsomes, pH 7.4) [µL/min/mg] | microsomal CLint at 2 μM [4] [µL/min/mg] | Microsomal CLint Rat [3] | Microsomal CLint Human [4] | microsomal CLint at 0.5 h, 2 µM [4] [µL/min/mg] | microsomal CLint at 0.5 h, 2 µM ([3]; rat, microsomes, pH 7.4) [µL/min/mg]
1 | CCCCN(Cc1ccccc1)C(=O)c1ccc(S(=O)(=O)Nc2ccccc2)cc1F [Compound 21, N-Benzyl-N-butyl-2-fluoro-4-(phenylsulfamoyl)benzamide] | 30.2 | 407 |  |  |  |  |  | 
2 | CCCCN(Cc1ccccc1)C(=O)c1ccc(S(=O)(=O)Nc2ccccc2)cc1C [Compound 22, N-Benzyl-N-butyl-2-methyl-4-(phenylsulfamoyl)benzamide] | 148 | 2140 |  |  |  |  |  | 
3 | CCCCN(Cc1ccccc1)C(=O)c1ccc(S(=O)(=O)Nc2ccccc2)cn1 [Compound 23, N-Benzyl-N-butyl-5-(phenylsulfamoyl)pyridine-2-carboxamide] | 166 | 1350 |  |  |  |  |  | 
4 | CCCCN(Cc1ccccc1)C(=O)c1cnc(S(=O)(=O)Nc2ccccc2)nc1 [Compound 24, N-Benzyl-N-butyl-2-(phenylsulfamoyl)pyrimidine-5-carboxamide] | 1740 | 891 |  |  |  |  |  | 
5 | CCCCN(Cc1ccccc1)C(=O)c1ccc(S(=O)(=O)Cc2ccccc2)cc1 [Compound 29, N-Benzyl-4-benzylsulfonyl-N-butyl-benzamide] | 468 | > 10000 |  |  |  |  |  | 
6 | CCCCN(Cc1ccccc1)C(=O)c1coc(S(=O)(=O)Nc2ccccc2)c1 [Compound 30, N-Benzyl-N-butyl-5-(phenylsulfamoyl)furan-3-carboxamide] | 933 | 6920 |  |  |  |  |  | 
7 | CCCCN(Cc1ccccc1)C(=O)c1ccc(S(=O)(=O)NC)cc1 [Compound 34, N-Benzyl-N-butyl-4-(N-methylsulfamoyl)benzamide] | > 10000 | > 10000 |  |  |  |  |  | 
8 | CCCCN(Cc1ccccc1)C(=O)c1ccc(S(=O)(=O)Nc2ccncc2)cc1 [Compound 35, N-Benzyl-N-butyl-4-(N-(pyridin-4-yl)sulfamoyl)benzamide] | > 10000 | > 10000 |  |  |  |  |  | 
9 | CCCCN(Cc1ccccc1)C(=O)c1ccc(S(=O)(=O)Nc2cnoc2)cc1 [Compound 36, N-Benzyl-N-butyl-4-(isoxazol-4-ylsulfamoyl)benzamide] | 6610 | > 10000 |  |  |  |  |  | 
10 | CCCCN(Cc1ccccc1)C(=O)c1ccc(S(=O)(=O)NC2CCC2)cc1 [Compound 37, N-Benzyl-N-butyl-4-(N-cyclobutylsulfamoyl)benzamide] | 372 | 4470 |  |  |  |  |  | 
11 | CCCCN(Cc1ccccc1)C(=O)c1ccc(S(=O)(=O)NC2COC2)cc1 [Compound 38, N-Benzyl-N-butyl-4-(N-(oxetan-3-yl)sulfamoyl)benzamide] | > 10000 | > 10000 |  |  |  |  |  | 
12 | CCCCN(Cc1ccc(F)cc1)C(=O)c1ccc(S(=O)(=O)Nc2ccccc2)cc1 [Compound 39, N-Butyl-N-(4-fluorobenzyl)-4-(N-phenylsulfamoyl)benzamide] |  | 195 | 942 | 409 |  |  |  | 
13 | CCCCN(Cc1ccc(OC)cc1)C(=O)c1ccc(S(=O)(=O)Nc2ccccc2)cc1 [Compound 40, N-Butyl-N-(4-methoxybenzyl)-4-(N-phenylsulfamoyl)benzamide] | 39.8 | 447 | 978 | 280 |  |  |  | 
14 | CCCCN(Cc1cccc(OC)c1)C(=O)c1ccc(S(=O)(=O)Nc2ccccc2)cc1 [Compound 41, N-Butyl-N-(3-methoxybenzyl)-4-(N-phenylsulfamoyl)benzamide] | 224 | 1620 | 783 | 556 |  |  |  | 
15 | CCCCN(Cc1ccccc1OC)C(=O)c1ccc(S(=O)(=O)Nc2ccccc2)cc1 [Compound 42, N-Butyl-N-(2-methoxybenzyl)-4-(N-phenylsulfamoyl)benzamide] | 1170 | 2570 | 827 | 812 |  |  |  | 
16 | CCCCN(Cc1ccncc1)C(=O)c1ccc(S(=O)(=O)Nc2ccccc2)cc1 [Compound 43, N-Butyl-4-(N-phenylsulfamoyl)-N-(pyridin-4-ylmethyl)benzamide] | 19.1 | 977 | 484 | 144 |  |  |  | 
17 | CCCCN(Cc1cccnc1)C(=O)c1ccc(S(=O)(=O)Nc2ccccc2)cc1 [Compound 44, N-Butyl-4-(N-phenylsulfamoyl)-N-(pyridin-3-ylmethyl)benzamide] | 1510 | 8130 |  | 234 | Rapid |  |  | 
18 | CCCCN(Cc1ccccn1)C(=O)c1ccc(S(=O)(=O)Nc2ccccc2)cc1 [Compound 45, N-Butyl-4-(N-phenylsulfamoyl)-N-(pyridin-2-ylmethyl)benzamide] | 51.3 | 1290 |  | 256 | Rapid |  |  | 

Row | SMILES | IC50 [1] [nM] | IC50 [2] [nM] | microsomal CLint at 2 μM ([3]; rat, microsomes, pH 7.4) [µL/min/mg] | microsomal CLint at 2 μM [4] [µL/min/mg] | Microsomal CLint Rat [3] | Microsomal CLint Human [4] | microsomal CLint at 0.5 h, 2 µM [4] [µL/min/mg] | microsomal CLint at 0.5 h, 2 µM ([3]; rat, microsomes, pH 7.4) [µL/min/mg]
19 | CCCCN(Cc1ccco1)C(=O)c1ccc(S(=O)(=O)Nc2ccccc2)cc1 [Compound 46, N-Butyl-N-(furan-2-ylmethyl)-4-(N-phenylsulfamoyl)benzamide] |  | 347 |  |  | Rapid | Rapid |  | 
20 | CCCCN(CC1CCCO1)C(=O)c1ccc(S(=O)(=O)Nc2ccccc2)cc1 (stereo not drawn) [Compound 47, N-Butyl-4-(N-phenylsulfamoyl)-N-((tetrahydrofuran-2-yl)methyl)benzamide] | > 10000 | > 10000 |  | 427 | Rapid |  |  | 
21 | CCCCN(Cc1ccc(CCC(=O)O)cc1)C(=O)c1ccc(S(=O)(=O)Nc2ccccc2)cc1 [Compound 48, 3-(4-((N-Butyl-4-(N-phenylsulfamoyl)benzamido)methyl)phenyl)propanoic acid] | 20.9 | 166 | 18 | 15 |  |  |  | 
22 | CCCCN(Cc1ccc(N2CCNCC2)cc1)C(=O)c1ccc(S(=O)(=O)Nc2ccccc2)cc1 [Compound 49, N-Butyl-4-(N-phenylsulfamoyl)-N-(4-(piperazin-1-yl)benzyl)benzamide] | 2290 | > 10000 | 56 | 50 |  |  |  | 
23 | CCN(Cc1ccccc1)C(=O)c1ccc(S(=O)(=O)Nc2ccccc2)cc1 [Compound 52, N-Benzyl-N-ethyl-4-(N-phenylsulfamoyl)benzamide] |  |  |  | 720 | Rapid |  |  | 
24 | O=C(c1ccc(S(=O)(=O)Nc2ccccc2)cc1)N(CCO)Cc1ccccc1 [Compound 53, N-Benzyl-N-(2-hydroxyethyl)-4-(N-phenylsulfamoyl)benzamide] |  | 209 |  | 76 | Rapid |  |  | 
25 | O=C(c1ccc(S(=O)(=O)Nc2ccccc2)cc1)N(CCCn1ccnc1)Cc1ccccc1 [Compound 56, N-Benzyl-N-(3-imidazol-1-ylpropyl)-4-(phenylsulfamoyl)benzamide] | 18.2 | 347 | 158 | 80 |  |  |  | 
26 | O=C(c1ccc(S(=O)(=O)Nc2ccccc2)cc1)N(Cc1ccccc1)CC1CC1 [Compound 57, N-Benzyl-N-(cyclopropylmethyl)-4-(phenylsulfamoyl)benzamide] |  |  |  |  | Rapid |  | 495 | 
27 | O=C(c1ccc(S(=O)(=O)Nc2ccccc2)cc1)N(Cc1ccccc1)C1CC1 [Compound 58, N-Benzyl-N-cyclopropyl-4-(phenylsulfamoyl)benzamide] | 46.8 | 1070 |  | 396 | Rapid |  |  | 
28 | CC(C)CN(Cc1ccccc1)C(=O)c1ccc(S(=O)(=O)Nc2ccccc2)cc1 [Compound 59, N-Benzyl-N-isobutyl-4-(phenylsulfamoyl)benzamide] | 20.9 | 1020 |  |  | Rapid | Rapid |  | 
29 | O=C(c1ccc(S(=O)(=O)Nc2ccccc2)cc1)N(Cc1ccccc1)CC1(Cn2ccnc2)CC1 [Compound 60, N-Benzyl-N-[[1-(imidazol-1-ylmethyl)cyclopropyl]methyl]-4-(phenylsulfamoyl)benzamide] | 19.1 | 407 | 395 | 109 |  |  |  | 
30 | O=C(c1ccc(S(=O)(=O)Nc2ccccc2)cc1)N(Cc1ccc2[nH]ccc2c1)CC1CC1 [Compound 61, N-(Cyclopropylmethyl)-N-(1H-indol-5-ylmethyl)-4-(phenylsulfamoyl)benzamide] | 11 | 11 | 802 | 288 |  |  |  | 
31 | O=C(c1ccc(S(=O)(=O)Nc2ccccc2)cc1)N(Cc1ccc2ncoc2c1)CC1CC1 [Compound 62, N-(1,3-Benzoxazol-6-ylmethyl)-N-(cyclopropylmethyl)-4-(phenylsulfamoyl)benzamide] | 6.46 | 95.5 |  | 263 | Rapid |  |  | 
32 | O=C(c1ccc(S(=O)(=O)Nc2ccccc2)cc1)N(Cc1ccc(Br)cn1)CC1CC1 [Compound 63, N-[(5-Bromo-2-pyridyl)methyl]-N-(cyclopropylmethyl)-4-(phenylsulfamoyl)benzamide] | 25.7 | 19.1 |  | 307 | Rapid |  |  | 
33 | Nc1ccc(CN(CC2CC2)C(=O)c2ccc(S(=O)(=O)Nc3ccccc3)cc2)nc1 [Compound 72, N-[(5-Amino-2-pyridyl)methyl]-N-(cyclopropylmethyl)-4-(phenylsulfamoyl)benzamide] |  |  |  |  |  |  | 36 | 431
34 | CN(C)CCNc1ccc(CN(CC2CC2)C(=O)c2ccc(S(=O)(=O)Nc3ccccc3)cc2)nc1 [Compound 78, N-(Cyclopropylmethyl)-N-[[5-[2-(dimethylamino)ethylamino]-2-pyridyl]methyl]-4-(phenylsulfamoyl)benzamide] |  |  | 31 | 23 |  |  |  | 
35 | CCN(Cc1ccc(NCCO)cn1)C(=O)c1ccc(S(=O)(=O)Nc2ccccc2)cc1 [Compound 80, N-Ethyl-N-[[5-(2-hydroxyethylamino)-2-pyridyl]methyl]-4-(phenylsulfamoyl)benzamide] |  |  | 51 | 12 |  |  |  | 
